The values that follow come from ChEMBL document CHEMBL3045559, “Natural-product-based chromenes as a novel class of potential termiticides” (2011).

SMILES strings stand for the structures.

Assay type in all cases: functional
The test system of assay [1] is Coptotermes formosanus. The experiment in a line: Termiticidal activity against Coptotermes formosanus (third-instar worker and soldier) assessed as mortality at 1% wt/wt at 26.6 degC, 100% RH measured after 3 days (Rvb= 0%).
In assay [2] the test system is Coptotermes formosanus. Description: Termiticidal activity against Coptotermes formosanus (third-instar worker and soldier) assessed as mortality at 1% wt/wt at 26.6 degC, 100% RH measured after 1 day (Rvb= 0%).
In assay [3] the test system is Coptotermes formosanus. Description: Termiticidal activity against Coptotermes formosanus (third-instar worker and soldier) assessed as mortality at 1% wt/wt at 26.6 degC, 100% RH measured after 17 days (Rvb= 5 +/- 4.1%).
Assay [4] relates to Coptotermes formosanus. The experiment in a line: Termiticidal activity against Coptotermes formosanus (third-instar worker and soldier) assessed as mortality at 1% wt/wt at 26.6 degC, 100% RH measured after 15 days (Rvb= 1.3 +/- 2.5 to 5 +/- 4.1%).
The subject of assay [5] is Coptotermes formosanus. The experiment in a line: Termiticidal activity against Coptotermes formosanus (third-instar worker and soldier) assessed as mortality at 1% wt/wt at 26.6 degC, 100% RH measured after 21 days (Rvb= 1.3 +/- 2.5 to 5 +/- 4.1%).
In assay [6] the test system is Coptotermes formosanus. The experiment in a line: Termiticidal activity against Coptotermes formosanus (third-instar worker and soldier) assessed as mortality at 1% wt/wt at 26.6 degC, 100% RH measured after 9 days (Rvb= 3.8 +/- 4.8%).
Assay [7] relates to Coptotermes formosanus. The experiment in a line: Termiticidal activity against Coptotermes formosanus (third-instar worker and soldier) assessed as mortality at 0.5% wt/wt at 26.6 degC, 100% RH measured after 5 days.
Assay [8] deals with Coptotermes formosanus. The experiment in a line: Termiticidal activity against Coptotermes formosanus (third-instar worker and soldier) assessed as mortality at 1% wt/wt at 26.6 degC, 100% RH measured after 7 days (Rvb= 3.8 +/- 4.8%).
Assay [9] has as its system Coptotermes formosanus. The experiment in a line: Termiticidal activity against Coptotermes formosanus (third-instar worker and soldier) assessed as mortality at 1% wt/wt at 26.6 degC, 100% RH measured after 11 days (Rvb= 1.3 +/- 2.5%).
Assay [10] deals with Coptotermes formosanus. The experiment in a line: Termiticidal activity against Coptotermes formosanus (third-instar worker and soldier) assessed as mortality at 1% wt/wt at 26.6 degC, 100% RH measured after 4 days (Rvb= 0%).
Assay [11] has as its system Coptotermes formosanus. Description: Termiticidal activity against Coptotermes formosanus (third-instar worker and soldier) assessed as mortality at 1% wt/wt at 26.6 degC, 100% RH measured after 8 days (Rvb= 1.3 +/- 2.5%).
In assay [12] the test system is Coptotermes formosanus. The experiment in a line: Termiticidal activity against Coptotermes formosanus (third-instar worker and soldier) assessed as mortality at 1% wt/wt at 26.6 degC, 100% RH measured after 18 days (Rvb= 1.3 +/- 2.5%).
The test system of assay [13] is Coptotermes formosanus. The experiment in a line: Termiticidal activity against Coptotermes formosanus (third-instar worker and soldier) assessed as mortality at 1% wt/wt at 26.6 degC, 100% RH measured after 21 days (Rvb= 1.3 +/- 2.5%).

As usually defined, the mortality is the share of the test organisms that died.

With `COC(=O)c1ccc(OC)c2c1OC(C)(C)C=C2`, the mortality in the assay on Coptotermes formosanus [1] amounted to 2.5%; in the assay with Coptotermes formosanus [2], 0%; with Coptotermes formosanus [3] it was 100%; in the assay on Coptotermes formosanus [4] it was 96.3%; in the assay on Coptotermes formosanus [5], 100%; in the assay on Coptotermes formosanus [6], 61.3%. In addition, the results for the mortality in the assay on Coptotermes formosanus [7] and in the assay with Coptotermes formosanus [8] were 100% and 30%, respectively.

On to `COC(=O)c1cccc2c1C=CC(C)(C)O2`, for which the mortality in the assay on Coptotermes formosanus [9] was 100%; with Coptotermes formosanus [2], 0%; in the assay on Coptotermes formosanus [10] it was 87.5%; with Coptotermes formosanus [4], 100%; in the assay with Coptotermes formosanus [11] it was 97.5%; in the assay on Coptotermes formosanus [12] it was 100%. For the same molecule, the mortality in the assay with Coptotermes formosanus [13] is listed as 100%.

With `CC1(C)C=Cc2c(CO)cccc2O1`, the mortality stood at 100% with Coptotermes formosanus [9]; 41.3% in the assay with Coptotermes formosanus [2]; 100% in the assay with Coptotermes formosanus [10]; 100% in the assay with Coptotermes formosanus [4]; 100% with Coptotermes formosanus [7]; 100% with Coptotermes formosanus [11]. In addition, the mortality in the assay on Coptotermes formosanus [12] and in the assay with Coptotermes formosanus [13] was 100% each time.

As to `CC1(C)C=Cc2cc(CCO)ccc2O1`, the mortality in the assay on Coptotermes formosanus [9] was 56.3%; with Coptotermes formosanus [2], 0%; in the assay on Coptotermes formosanus [10], 10%; in the assay on Coptotermes formosanus [4], 70%; in the assay on Coptotermes formosanus [11], 33.8%; in the assay with Coptotermes formosanus [12], 71.3%. Also, the mortality with Coptotermes formosanus [13] worked out at 73.8%.

On to `CC(C)NCc1ccc2c(c1)C=CC(C)(C)O2.Cl`, for which the mortality with Coptotermes formosanus [9] is 72.5%; in the assay on Coptotermes formosanus [2], 8.8%; with Coptotermes formosanus [10], 20%; with Coptotermes formosanus [4], 80%; in the assay on Coptotermes formosanus [11], 55%; in the assay on Coptotermes formosanus [12], 88.8%. In addition, the mortality in the assay on Coptotermes formosanus [13] is 88.8%.

For the molecule `COC(=O)c1ccc2c(c1)C=CC(C)(C)O2`, the mortality in the assay with Coptotermes formosanus [9] is recorded as 100%; with Coptotermes formosanus [2], 3.75%; with Coptotermes formosanus [10], 92.5%; in the assay on Coptotermes formosanus [4] it was 100%; with Coptotermes formosanus [11], 100%; in the assay with Coptotermes formosanus [12], 100%. For the same molecule, the mortality with Coptotermes formosanus [13] is recorded as 100%.

`CC(C)CC(=O)N(C)CCC1=CC2C=CC(C)(C)OC2C=C1` (configuration not stated): the mortality was found to be 32.5% with Coptotermes formosanus [9]; 6.3% with Coptotermes formosanus [2]; 32.5% with Coptotermes formosanus [10]; 32.5% with Coptotermes formosanus [4]; 32.5% in the assay on Coptotermes formosanus [11]; 32.5% in the assay with Coptotermes formosanus [12]. Also, in the assay with Coptotermes formosanus [13], the mortality is 32.5%.

Take `CC1(C)C=Cc2ccc(CO)cc2O1`: the mortality was 100% in the assay on Coptotermes formosanus [9]; 26.3% with Coptotermes formosanus [2]; 100% in the assay with Coptotermes formosanus [10]; 100% in the assay with Coptotermes formosanus [4]; 100% with Coptotermes formosanus [11]; 100% in the assay with Coptotermes formosanus [12]. Moreover, in the assay with Coptotermes formosanus [13], the mortality stood at 100%.

In the case of `CNCCc1ccc2c(c1)C=CC(C)(C)O2.Cl`, the mortality in the assay on Coptotermes formosanus [9] was 1.3%; in the assay with Coptotermes formosanus [2], 0%; in the assay on Coptotermes formosanus [10], 0%; with Coptotermes formosanus [4] it was 2.5%; in the assay on Coptotermes formosanus [11], 0%; in the assay with Coptotermes formosanus [12], 2.5%. Moreover, the mortality in the assay on Coptotermes formosanus [13] was determined as 3.8%.

For `COC(=O)Cc1ccc2c(c1)C=CC(C)(C)O2`, the mortality with Coptotermes formosanus [9] stood at 100%; with Coptotermes formosanus [2], 12.5%; in the assay with Coptotermes formosanus [10] it was 82.5%; with Coptotermes formosanus [4], 100%; in the assay on Coptotermes formosanus [11], 92.5%; in the assay with Coptotermes formosanus [12], 100%. Further, in the assay with Coptotermes formosanus [13], the mortality is 100%.

Take `COC(=O)c1ccc2c(c1)OC(C)(C)C=C2`: the mortality was determined as 100% in the assay on Coptotermes formosanus [9]; 32.5% in the assay on Coptotermes formosanus [2]; 100% in the assay with Coptotermes formosanus [10]; 100% with Coptotermes formosanus [4]; 100% in the assay on Coptotermes formosanus [11]; 100% in the assay on Coptotermes formosanus [12]. Moreover, the mortality in the assay with Coptotermes formosanus [13] stood at 100%.

Turning to `CC1(C)C=Cc2cc(C=O)ccc2O1`, the mortality in the assay with Coptotermes formosanus [9] stood at 93.8%; with Coptotermes formosanus [2], 51.3%; in the assay with Coptotermes formosanus [10], 62.5%; in the assay on Coptotermes formosanus [4] it was 98.8%; in the assay with Coptotermes formosanus [11], 81.3%; with Coptotermes formosanus [12], 98.8%. Besides, the mortality in the assay on Coptotermes formosanus [13] stood at 98.8%.

For `CC(C)NCCc1ccc2c(c1)C=CC(C)(C)O2.Cl`, the mortality is reported as 5% in the assay with Coptotermes formosanus [9]; 3.75% in the assay on Coptotermes formosanus [2]; 3.8% in the assay on Coptotermes formosanus [10]; 7.5% in the assay on Coptotermes formosanus [4]; 3.8% in the assay with Coptotermes formosanus [11]; 8.8% with Coptotermes formosanus [12]. Further, the mortality in the assay on Coptotermes formosanus [13] stood at 15%.

For the molecule `CC1(C)C=Cc2cc3c(cc2O1)OCO3` [6,6-DIMETHYL-6H-[1,3]DIOXOLO[4,5-G]CHROMENE], the mortality worked out at 2.5% in the assay with Coptotermes formosanus [1]; 0% with Coptotermes formosanus [2]; 82.5% with Coptotermes formosanus [3]; 75% in the assay on Coptotermes formosanus [4]; 85% in the assay with Coptotermes formosanus [5]; 23.8% with Coptotermes formosanus [6]. The mortality with Coptotermes formosanus [8] stood at 12.5%.

As to `CC1(C)C=Cc2cc(C(=O)O)ccc2O1`, the mortality in the assay with Coptotermes formosanus [9] is 0%; with Coptotermes formosanus [2], 0%; in the assay on Coptotermes formosanus [10], 0%; with Coptotermes formosanus [4], 1.3%; in the assay on Coptotermes formosanus [11], 0%; in the assay on Coptotermes formosanus [12], 1.3%. The mortality with Coptotermes formosanus [13] was 2.5%.

In the case of `CC1(C)C=Cc2cc(CO)ccc2O1` [EULATACHROMENE], the mortality in the assay on Coptotermes formosanus [9] is on record as 100%; with Coptotermes formosanus [2], 1.3%; in the assay on Coptotermes formosanus [10] it was 40%; with Coptotermes formosanus [4] it was 100%; in the assay with Coptotermes formosanus [11] it was 92.5%; in the assay on Coptotermes formosanus [12], 100%. Further, the mortality in the assay with Coptotermes formosanus [13] is on record as 100%.

With `CC(=O)c1ccc2c(c1O)C=CC(C)(C)O2`, the mortality with Coptotermes formosanus [1] was determined as 1.3%; in the assay on Coptotermes formosanus [2] it was 0%; in the assay with Coptotermes formosanus [3], 100%; in the assay with Coptotermes formosanus [4] it was 100%; with Coptotermes formosanus [5], 100%; in the assay on Coptotermes formosanus [6], 98.8%. The mortality with Coptotermes formosanus [7] was found to be 100%; with Coptotermes formosanus [8] it was 66.3%.
